# Experimental data taken from patent US10358469B2, “Methods and pharmaceutical compositions for the treatment of cancer” (INSERM (INSTITUT NATIONAL DE LA SANTÉ ET DE LA RECHERCHE …, priority 2014, dated 2019).
# “Also recorded” adds a separate entry of the source. Non-standard residues stand in square brackets, D forms with d.
# Experiments:
# [1] = test system: leukemic cells isolated from hMRP8-PML/RARα transgenic mice; experiment: Acute promyelocytic leukemia (APL) mouse model, survival; assay type: in vivo
# Experimental: FIG. 9: Antp-AAC-11-LZ (363-399) peptide treatment of leukemic mice protects against disease progression. Mice were challenged with 10^4 leukemic cells isolated from hMRP8-PML/RARα transgenic mice, allowed to engraft for 10 d, and were then injected intraperitonaly each day for 7 consecutive days with Antp-AAC-11-LZ (363-399) peptide (1.8 mg/kg) or vehicle (normal saline solution), or subcutaneously implanted with a 21-d release pellet containing 5 mg ATRA (n=6 for each treatment). Mice were monitored for survival.
# We use an established in vivo APL model based on syngenic grafts of leukemic blasts from hMRP8-PML/RARα transgenic mice, as described by Brown et al. (Brown et al., 1997). This model mimics human APL, both in its biological characteristics and its response to conventional therapeutic drugs such as all-trans retinoic acid (ATRA) and 100% of the mice die of the disease (Brown et al., 1997; Kogan et al., 2000; Lallemand-Breitenbach et al., 1999). […] leukemic cells isolated from bone marrow, spleen, or lymph nodes of leukemic hMRP8-PML/RARα transgenic mice (Brown et al., 1997) were injected into the tail vein of 6-7 week old syngeneic FVB/N mice. Establishment of leukemia was assessed by the appearance of high leukocyte and low platelet counts at around day 8 (Brown et al., 1997). Ten days after transplantation, mice implanted with leukemic cells were randomly assigned to either type of treatment (n=6). Antp-AAC-11-LZ (363-399) peptide (1.8 mg/kg) or vehicle (normal saline solution) was injected intraperitonaly each day for 7 consecutive days. Retinoic acid was administrated by subcutaneous implantation of a 21-d release pellet containing 5 mg ATRA (Innovative Research of America). Mice were then monitored for survival.
# [2] = test system: human triple-negative breast cancer xenograft PDX02; experiment: Triple-negative breast cancer patient-derived xenograft PDX02 in nude mice; assay type: in vivo; conditions: 2.4 mg/kg i.p., 7 daily injections, p=0.01
# Experimental: (§1) Breast cancer fragments were obtained from patients at the time of surgery, with informed written patient consent. After imaging-guided human tumor biopsies had been performed, fragments of 30 to 60 mm^3 were subcutaneously grafted in 6-week-old NMRI-nude mice (Centre-Elevage-Janvier, France), under xylasin (10 mg/kg)/ketamin (100 mg/kg) anesthesia. Mice were maintained in specific pathogen-free animal housing (Institut Universitaire d'Hematologie) and received estrogen (17 mg/mL) diluted in drinking water. Xenografts were characterized and subsequently subcutaneously transplanted from mouse to mouse. […] Two human triple-negative breast cancer (HBC) xenografts models were used in our experiments (PDX01 and PDX02). […] Following transplantation (n=6 per model) tumor growth was assessed by measuring tumor size in two dimension using a Vernier caliper. Tumor volume was calculated using the formula [3.14×long axis×short axis×short axis]/6 (Kjonniksen et al., 1989). […] Mice were weighted and the tumor size was measured by a caliper and recorded daily. Fourteen days after beginning of the treatment mice were sacrificed. The tumors, kidney, lungs, heart, liver, pancreas and spleen were taken and fixed. Paraffin-embedded sections were prepared and stained with hematoxylin and eosin for histological analysis.
# [3] = test system: human triple-negative breast cancer xenograft PDX01; experiment: Triple-negative breast cancer patient-derived xenograft PDX01 in nude mice; assay type: in vivo; conditions: 2.4 mg/kg i.p., 7 daily injections, p=0.01
# Experimental: as §1
# A549 cells = experiment: Cell viability (MTT) of A549 cells under low serum / serum deprivation; assay type: cell-based; conditions: for induction of cell death of A549 cells: 10 μM, serum deprivation, FIG. 1C; for induction of cell death of A549 cells / cytotoxicity (decrease of A549 viability) relative to comparison peptide, dose-response: 24 hours; for cytotoxicity (decrease of A549 viability) relative to comparison peptide, dose-response: various concentrations, low-serum conditions, FIG. 2A / 5A; for cellular viability: 2 µM
# Experimental: (A) Karpas 1106, SU-DHL-5, SeAx and HUT-78 cells were plated at a densities of 6×10^3 in 96 well plates (100 μL total volume per well) and treated for 24 hours in a 37° C. incubator (5% CO2) with increasing concentrations of the Antp-AAC-11-LZ (363-399). 20 μL MTS reagent was then added to each well and plates were incubated for an additional 4 hours. Absorbance was measured at 490 nm using a 96-well plate reader. The extent to which the Antp-AAC-11-LZ (363-399) peptide inhibited cell proliferation was calculated as a percentage of the absorbance in each well containing the Antp-AAC-11-LZ (363-399) peptide relative to wells containing no peptide (negative control). Each bar represents the mean±s.d. from at least three independent experiments. (B) Indicated cells were plated at a densities of 4.5×10^3 in 96 well plates (100 μL total volume per well) and allowed to attach overnight in a 37° C. incubator (5% CO2). Media was removed from cells and replaced with media containing Antp-AAC-11-LZ (363-399) peptide at various concentrations (100 μL total volume per well) peptide and the plates were incubated for 24 hours. The MTT assay was then completed and data analysis was performed as described herein. […] A549 cells were plated at a densities of 4.5×10^3 in 96 well plates (100 μL total volume per well) and allowed to attach overnight in a 37° C. incubator (5% CO2). Media was removed from cells and replaced with media containing the indicated peptides at 10 μM (100 μL total volume per well) and the plates were incubated for 24 hours. The MTT assay was then completed and data analysis was performed as described herein.
# (A) A549 cells were plated at a densities of 4.5×10^3 in 96 well plates (100 μL total volume per well) and allowed to attach overnight in a 37° C. incubator (5% CO2). Media was removed from cells and replaced with media containing the indicated peptides at various concentrations (100 μL total volume per well) peptide in the absence of serum and the plates were incubated for 24 hours. The MTT assay was then completed and data analysis was performed as described herein. (B) A549 or HaCat cells were plated at a densities of 4.5×10^3 in 96 well plates (100 μL total volume per well) and allowed to attach overnight in a 37° C. incubator (5% CO2). Media was removed from cells and replaced with media containing the indicated peptides at 10 μM (100 μL total volume per well) peptide in the absence of serum and the plates were incubated for 24 hours. The MTT assay was then completed and data analysis was performed as described herein.
# A549 cells were plated at a densities of 4.5×10^3 in 96 well plates (100 μL total volume per well) and allowed to attach overnight in a 37° C. incubator (5% CO2). Cells were left untreated or pre-treated with 100 μM Z-VAD-FMK for 2 h. […] The MTT assay was then completed and data analysis was performed as described herein.
# (A) A549 cells were plated at a densities of 4.5×10^3 in 96 well plates (100 μL total volume per well) and allowed to attach overnight in a 37° C. incubator (5% CO2). Media was removed from cells and replaced with media containing the indicated Antp-AAC-11-LZ peptides at various concentrations (100 μL total volume per well) peptide and the plates were incubated for 24 hours. The MTT assay was then completed and data analysis was performed as described herein. (B) A549 or HaCat cells were plated at a densities of 4.5×10^3 in 96 well plates (100 μL total volume per well) and allowed to attach overnight in a 37° C. incubator (5% CO2). Media was removed from cells and replaced with media containing the indicated peptides at 10 μM (100 μL total volume per well) peptide in the absence of serum and the plates were incubated for 24 hours. The MTT assay was then completed and data analysis was performed as described herein.
# D3H2LN cells = experiment: Proliferation of D3H2LN cells (not showed); assay type: cell-based
# HaCat cells = experiment: Cell viability (MTT) of nonmalignant HaCat cells in the absence of serum; assay type: cell-based; conditions: 10 μM, 24 hours, FIG. 2B / 5B
# Experimental: FIG. 2: TAT-AAC-11-LZ (363-399), RI-TAT-AAC-11-LZ (363-399) and Cter-Antp-AAC-11-LZ (363-399) peptides preferentially kill tumor cells. (A) A549 cells were plated at a densities of 4.5×10^3 in 96 well plates (100 μL total volume per well) and allowed to attach overnight in a 37° C. incubator (5% CO2). Media was removed from cells and replaced with media containing the indicated peptides at various concentrations (100 μL total volume per well) peptide in the absence of serum and the plates were incubated for 24 hours. The MTT assay was then completed and data analysis was performed as described herein. (B) A549 or HaCat cells were plated at a densities of 4.5×10^3 in 96 well plates (100 μL total volume per well) and allowed to attach overnight in a 37° C. incubator (5% CO2). Media was removed from cells and replaced with media containing the indicated peptides at 10 μM (100 μL total volume per well) peptide in the absence of serum and the plates were incubated for 24 hours. […]
# Viability of cells cultured in the 96-well culture plates was assessed by measuring mitochondrial dehydrogenase activity, using the colorimetric CellTiter 96® AQueous One Solution Cell Proliferation Assay (Promega), according to the manufacturer′ instructions. […] The color can then be quantified using a simple colorimetric assay. The results are read on a multiwall scanning spectrophotometer (ELISA reader).
compound,measurement,setting,value
"CC1=C(/C=C/C(C)=C/C=C/C(C)=C/C(=O)O)C(C)(C)CCC1 [ATRA, all-trans retinoic acid, reference compound]",mice surviving up to 67 d,[1]; n=6 per treatment,one mouse
same,mean survival time,"[1]; peptide 1.8 mg/kg i.p. daily for 7 days, ATRA 5 mg 21-d release pellet s.c., from day 10 after graft, n=6",56 days
AAC-11-LZ (363-399): AKLNAEKLKDFKIRLQYFARGLQVYIRQLRLALQGKT (SEQ ID NO: 3) (Synthetic AAC-11-LZ (363-399)),final mean tumor volume relative to control-treated mice,[2],less than 50%
same,final mean tumor volume relative to control-treated mice,[3],less than 35%
same,induction of cell death of A549 cells,A549 cells,"neither the Penetratin peptide alone, the AAC-11-LZ (363-399) peptide without the Penetratin linkage nor the mutant peptide Antp-AAC-11-LZ (363-399) L/G did induce cell death"
Ac-RQIKIWFKKQNRRMKWKKFARGLQVYIRQLRLALQGKT-NH2 [Antp-AAC-11-LZ (380-399)],"cytotoxicity (decrease of A549 viability) relative to comparison peptide, dose-response",A549 cells,substantial but weaker cell death than the Antp-AAC-11-LZ (363-399) peptide
Ac-RQIKIWFKKQNRRMKWKKKDFKIRLQYFARGLQVYIRQL-NH2 [Antp-AAC-11-LZ (371-391)],"cytotoxicity (decrease of A549 viability) relative to comparison peptide, dose-response",A549 cells,reduced cytotoxicity compared with the Antp-AAC-11-LZ (371-399) peptide; also recorded: significantly higher cell death compared with the Antp-AAC-11-LZ (363-399) parent peptide
Ac-RQIKIWFKKQNRRMKWKKKDFKIRLQYFARGLQVYIRQLRLALQG-NH2 [Antp-AAC-11-LZ (371-397)],"cytotoxicity (decrease of A549 viability) relative to comparison peptide, dose-response",A549 cells,reduced cytotoxicity compared with the Antp-AAC-11-LZ (371-399) peptide; also recorded: significantly higher cell death compared with the Antp-AAC-11-LZ (363-399) parent peptide
Ac-RQIKIWFKKQNRRMKWKKKDFKIRLQYFARGLQVYIRQLRLALQGKT-NH2 [Antp-AAC-11-LZ (371-399)],cellular viability,A549 cells,33.2 % of control
same,"cytotoxicity (decrease of A549 viability) relative to comparison peptide, dose-response",A549 cells,markedly increased cytotoxicity potency compared to the parent peptide
Ac-RQIKIWFKKQNRRMKWKKLQYFARGLLRLALQGKT-NH2 [Antp-AAC-11-LZ (377-399 4385-390)],cellular viability,A549 cells,3 % of control
same,"cytotoxicity (decrease of A549 viability) relative to comparison peptide, dose-response",A549 cells,highest activity
Ac-YGRKKRRQRRRGGGAKLNAEKLKDFKIRLQYFARGLQVYIRQLRLALQGKT-NH2 [TAT-AAC-11-LZ (363-399)],proliferation at the concentrations used for migration,D3H2LN cells,neither the Antp-AAC-11-LZ (363-399) or TAT-AAC-11-LZ (363-399) peptides impaired proliferation
same,"cytotoxicity (decrease of A549 viability) relative to comparison peptide, dose-response",A549 cells,at least as effective as compared to the Antp-AAC-11-LZ (363-399) peptide
same,cytotoxicity in nonmalignant cells,HaCat cells,largely more resistant
Ac-[dR][dR][dR][dQ][dR][dR][dK][dK][dR]G[dY]G[dT][dK]G[dQ][dL][dA][dL][dR][dL][dQ][dR][dI][dY][dV][dQ][dL]G[dR][dA][dF][dY][dQ][dL][dR][dI][dK][dF][dD][dK][dL][dK][dE][dA][dN][dL][dK][dA]-NH2 [RI-TAT-AAC-11-LZ (363-399)],"cytotoxicity (decrease of A549 viability) relative to comparison peptide, dose-response",A549 cells,more effective than the TAT-AAC-11-LZ (363-399) peptide
same,cytotoxicity in nonmalignant cells,HaCat cells,very little cytotoxicity
"Antp-AAC-11-LZ (363-399) L/G: RQIKIWFKKQNRRMKWKKAKLNAEKLKDFKIRGQYFARGGQVYIRQGRLALQGKT (SEQ ID NO: 5), leucines 377, 384 and 391 mutated to glycines (Ac-RQIKIWFKKQNRRMKWKKAKLNAEKLKDFKIRGQYFARGGQVYIRQGRLALQGKT-NH2)",induction of cell death of A549 cells,A549 cells,"neither the Penetratin peptide alone, the AAC-11-LZ (363-399) peptide without the Penetratin linkage nor the mutant peptide Antp-AAC-11-LZ (363-399) L/G did induce cell death"
